Test: Water solubility (dissolution in water)
Experimental: Stability of this compound was determined by dissolving small amounts in water, pH 7.8 phosphate buffer and methanol.
The stability of the product is determined by dissolving in deionized water and pH 7.26 phosphate buffer.

For `Nc1c2c(nc3ccccc13)CCCC2` [Tacrine, tacrine], the “WATER SOLUBILITY (in words)” value was “Insoluble”.

From patent US6013283A (priority 1997, dated 2000)
